Measured values taken from paper PMC4254624 (Biochemical and biophysical research communications, 2014).
Where two headings read alike, the source gives them in different places.

What was measured:
[1] = target: T1, EcSecA intrinsic ATPase (Escherichia coli, UniProt P10408); conditions: cited from earlier work
[2] = target: T1, EcSecA intrinsic ATPase; assay: Intrinsic ATPase activity assay of EcSecA; type: biochemical; conditions: for Ki: read-out: apparent Ki, intrinsic ATPase; for Km / Vmax: Intrinsic
[3] = target: PaSecA (Pseudomonas aeruginosa, UniProt Q9LCT3); assay: SecA ion channel activity in Xenopus oocytes; type: cell-based, P. aeruginosa; conditions: for IC50: read-out: IC50 inhibition of SecA channel activity in oocytes, PaSecA
[4] = target: EcSecA membrane ATPase (Escherichia coli, UniProt P10408); assay: Membrane ATPase activity assay of EcSecA with urea-washed BA13 membrane; type: biochemical
[5] = target: EcSecA (Escherichia coli, UniProt P10408); assay: SecA ion channel activity in Xenopus oocytes; type: cell-based; conditions: for IC50: read-out: IC50 inhibition of SecA channel activity in oocytes, EcSecA
[6] = target: EcSecA translocation ATPase (Escherichia coli, UniProt P10408); assay: Translocation ATPase activity assay of EcSecA with BA13 membrane and proOmpA; type: biochemical; conditions: for Km / Vmax: Translocation
[7] = target: BsSecA (Bacillus subtilis, UniProt P28366); assay: SecA ion channel activity in Xenopus oocytes; type: cell-based; conditions: for IC50: read-out: IC50 inhibition of SecA channel activity in oocytes, BsSecA
[8] = target: BsSecA intrinsic ATPase (Bacillus subtilis, UniProt P28366); assay: Intrinsic ATPase activity assay of BsSecA; type: biochemical
[9] = high ATP concentrations (above 1 mM), non-competitive
[10] = low ATP concentrations (below 0.6 mM), competitive

T1 sequence (P10408 whole entry): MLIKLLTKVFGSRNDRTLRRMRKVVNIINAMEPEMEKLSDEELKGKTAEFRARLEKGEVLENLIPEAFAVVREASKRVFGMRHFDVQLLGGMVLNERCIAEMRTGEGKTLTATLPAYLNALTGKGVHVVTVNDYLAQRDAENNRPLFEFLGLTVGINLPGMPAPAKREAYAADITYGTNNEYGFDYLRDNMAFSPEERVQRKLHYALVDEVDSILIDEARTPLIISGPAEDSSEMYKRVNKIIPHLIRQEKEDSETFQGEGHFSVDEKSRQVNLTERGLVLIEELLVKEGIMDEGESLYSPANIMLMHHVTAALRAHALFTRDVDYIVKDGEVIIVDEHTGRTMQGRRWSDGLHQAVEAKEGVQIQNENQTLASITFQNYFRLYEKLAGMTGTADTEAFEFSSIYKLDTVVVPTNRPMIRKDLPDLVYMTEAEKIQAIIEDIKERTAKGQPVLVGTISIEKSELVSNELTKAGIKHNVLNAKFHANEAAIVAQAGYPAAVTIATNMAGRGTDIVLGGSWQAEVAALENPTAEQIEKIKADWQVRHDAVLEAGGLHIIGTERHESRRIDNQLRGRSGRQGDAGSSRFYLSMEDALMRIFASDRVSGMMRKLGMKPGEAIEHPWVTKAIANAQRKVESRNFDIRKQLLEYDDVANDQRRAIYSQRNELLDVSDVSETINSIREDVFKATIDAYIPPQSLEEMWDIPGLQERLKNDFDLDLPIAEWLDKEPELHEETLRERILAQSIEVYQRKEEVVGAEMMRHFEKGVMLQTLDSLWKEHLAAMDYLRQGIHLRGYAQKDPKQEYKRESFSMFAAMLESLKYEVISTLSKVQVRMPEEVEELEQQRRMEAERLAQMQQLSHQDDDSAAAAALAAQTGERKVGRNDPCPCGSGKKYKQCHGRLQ
EcSecA translocation ATPase, sequence (P10408 whole entry): as above
EcSecA, sequence (P10408 whole entry): as above
EcSecA membrane ATPase, sequence (P10408 whole entry): as above
PaSecA, sequence (Q9LCT3 whole entry): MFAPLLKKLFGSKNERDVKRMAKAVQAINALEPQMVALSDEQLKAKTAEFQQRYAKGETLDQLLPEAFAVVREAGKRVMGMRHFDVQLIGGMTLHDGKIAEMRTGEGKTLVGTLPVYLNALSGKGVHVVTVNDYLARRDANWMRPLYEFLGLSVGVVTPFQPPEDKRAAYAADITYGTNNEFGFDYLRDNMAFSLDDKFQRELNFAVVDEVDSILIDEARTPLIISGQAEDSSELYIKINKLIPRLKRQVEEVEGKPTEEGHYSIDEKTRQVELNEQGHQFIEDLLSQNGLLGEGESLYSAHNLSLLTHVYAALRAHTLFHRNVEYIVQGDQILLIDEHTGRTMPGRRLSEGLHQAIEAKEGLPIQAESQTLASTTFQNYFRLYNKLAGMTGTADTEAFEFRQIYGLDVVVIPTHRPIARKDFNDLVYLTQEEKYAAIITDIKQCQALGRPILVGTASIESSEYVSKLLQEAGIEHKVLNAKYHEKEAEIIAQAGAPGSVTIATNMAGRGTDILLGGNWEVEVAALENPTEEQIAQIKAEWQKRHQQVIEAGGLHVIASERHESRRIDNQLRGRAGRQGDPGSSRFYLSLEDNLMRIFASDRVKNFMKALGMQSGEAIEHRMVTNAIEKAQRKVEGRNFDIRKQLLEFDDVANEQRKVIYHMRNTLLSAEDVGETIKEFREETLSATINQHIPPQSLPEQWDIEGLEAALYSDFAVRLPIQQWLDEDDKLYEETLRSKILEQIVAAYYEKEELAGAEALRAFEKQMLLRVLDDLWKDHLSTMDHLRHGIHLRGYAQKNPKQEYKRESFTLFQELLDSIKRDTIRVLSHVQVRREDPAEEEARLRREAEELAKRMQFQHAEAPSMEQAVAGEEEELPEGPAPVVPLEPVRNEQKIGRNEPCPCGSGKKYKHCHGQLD
BsSecA, sequence (P28366 whole entry): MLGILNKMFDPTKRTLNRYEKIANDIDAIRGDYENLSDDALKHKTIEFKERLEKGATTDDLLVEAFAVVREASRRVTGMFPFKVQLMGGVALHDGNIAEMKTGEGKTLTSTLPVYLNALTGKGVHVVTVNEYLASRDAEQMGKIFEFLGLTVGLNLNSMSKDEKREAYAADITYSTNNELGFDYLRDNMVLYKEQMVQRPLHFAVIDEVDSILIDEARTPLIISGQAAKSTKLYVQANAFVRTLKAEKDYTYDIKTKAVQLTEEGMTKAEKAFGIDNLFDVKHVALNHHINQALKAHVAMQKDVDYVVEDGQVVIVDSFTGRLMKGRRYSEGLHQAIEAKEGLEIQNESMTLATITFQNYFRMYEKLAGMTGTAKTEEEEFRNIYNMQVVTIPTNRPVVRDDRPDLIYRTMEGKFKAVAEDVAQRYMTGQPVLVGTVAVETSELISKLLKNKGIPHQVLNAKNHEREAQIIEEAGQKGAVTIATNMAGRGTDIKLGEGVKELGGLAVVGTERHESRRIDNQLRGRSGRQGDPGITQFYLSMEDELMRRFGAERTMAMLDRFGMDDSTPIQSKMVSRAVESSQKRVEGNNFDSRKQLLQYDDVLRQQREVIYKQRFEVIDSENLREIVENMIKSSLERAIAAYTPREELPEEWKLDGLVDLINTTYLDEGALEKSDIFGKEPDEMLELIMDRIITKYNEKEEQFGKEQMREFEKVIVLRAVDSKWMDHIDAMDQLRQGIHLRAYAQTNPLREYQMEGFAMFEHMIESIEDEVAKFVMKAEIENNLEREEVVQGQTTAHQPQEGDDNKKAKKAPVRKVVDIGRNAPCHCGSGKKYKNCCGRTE
BsSecA intrinsic ATPase, sequence (P28366 whole entry): as above

[N-]=[N+]=[N-].[Na+] [azide, sodium azide]
effect on SecA intrinsic ATPase activity [1]: does not affect

O.O=C([O-])c1ccccc1-c1c2cc(I)c(=O)c(I)c-2oc2c(I)c([O-])c(I)cc12.[Na+].[Na+] [EB, Erythrocin B]
mechanism of inhibition of intrinsic ATPase versus ATP ([2]; high ATP concentrations): non-competitively | mechanism of inhibition of intrinsic ATPase versus ATP ([2]; low ATP concentrations): competitively | Ki [2, 9]: 34.3 ± 8.08 µM | Ki [2, 10]: 4.06 ± 0.32 µM

O=C1OC2(c3cc(I)c(O)c(I)c3Oc3c2cc(I)c(O)c3I)c2c(Cl)c(Cl)c(Cl)c(Cl)c21 [RB, Rose Bengal]
mechanism of inhibition of liposome channel activity with ATP ([3]; PaSecA-liposomes in oocytes): non-competitive inhibition | IC50 ([3]; BA13 memb): 5.1 ± 0.2 µM | IC50 ([3]; L+SecYEG +SecDF•C): 2 ± 0.3 µM | IC50 ([3]; Lipo): 0.3 ± 0.2 µM | IC50 ([3]; RE-13 memb +SecYEG): 5.1 ± 0.2 µM | IC50 ([3]; RE-13 memb +SecYEG-DF•C): 5.1 ± 0.1 µM | mechanism of inhibition of membrane ATPase [4]: mixed-mechanism | Vmax ([4]; Membrane, RB 2 μM): 13.61 molePi·moleSecA^−1min^−1 | Km ([4]; Membrane, RB 4 μM): 310 µM | Vmax ([4]; Membrane, RB 4 μM): 8.18 molePi·moleSecA^−1min^−1 | Ki ([4]; read-out: average Ki, membrane ATPase, mixed-mechanism): 1.42 ± 0.22 µM | Km ([2]; High [ATP], RB 20 μM): 1680 µM | Vmax ([2]; High [ATP], RB 20 μM): 6.08 molePi·moleSecA^−1min^−1 | Km ([2]; High [ATP], RB 40 μM): 1680 µM | Vmax ([2]; High [ATP], RB 40 μM): 3.99 molePi·moleSecA^−1min^−1 | Km ([2]; Low [ATP], RB 20 μM): 250 µM | Vmax ([2]; Low [ATP], RB 20 μM): 3.07±0.16 molePi·moleSecA^−1min^−1 | Km ([2]; Low [ATP], RB 40 μM): 460 µM | Vmax ([2]; Low [ATP], RB 40 μM): 3.07±0.16 molePi·moleSecA^−1min^−1 | mechanism of inhibition of intrinsic ATPase versus ATP ([2]; high ATP concentrations): non-competitive inhibitor | mechanism of inhibition of intrinsic ATPase versus ATP ([2]; low ATP concentrations): competitive inhibitor | Ki [2, 9]: 57.1 ± 3.37 µM | Ki [2, 10]: 22.4 ± 3.33 µM | mechanism of inhibition of channel activity ([5]; EcSecA-SecYEG-SecDF•YajC liposomes in oocytes): non-competitive inhibition pattern | mechanism of inhibition of liposome channel activity with ATP ([5]; EcSecA-liposomes in oocytes): non-competitive inhibition | IC50 ([5]; BA13 memb): 4.7 ± 0.1 µM | IC50 ([5]; L+SecYEG +SecDF•C): 3.8 ± 0.3 µM | IC50 ([5]; RE-13 memb +SecYEG-DF•C): 4.4 ± 0.1 µM | Km ([6]; RB 0.75 μM): 180 µM | Vmax ([6]; RB 0.75 μM): 23.42 molePi·moleSecA^−1min^−1 | Km ([6]; RB 1 μM): 180 µM | Vmax ([6]; RB 1 μM): 15.06 molePi·moleSecA^−1min^−1 | mechanism of inhibition of translocation ATPase ([6]; broad range of ATP concentrations): only non-competitively | Ki ([6]; read-out: Ki, translocation ATPase, non-competitive, broad range of ATP concentrations): 0.43 ± 0.02 µM | mechanism of inhibition of liposome channel activity with ATP ([7]; BsSecA-liposomes in oocytes): non-competitive inhibition | IC50 ([7]; BA13 memb): 5.8 ± 0.3 µM | IC50 ([7]; L+SecYEG +SecDF•C): 4.5 ± 0.2 µM | IC50 ([7]; RE-13 memb +SecYEG-DF•C): 5.2 ± 0.3 µM | mechanism of inhibition of intrinsic ATPase [8]: two-site inhibition depending on the concentration of ATP
